Assay results from patent US20230365584A1, “HETEROCYCLIC PERICONDENSED CDC7 KINASE INHIBITORS FOR THE TREATMENT OF CANCER” (SCHRÖDINGER, INC., priority 2020, published 2023).
pIC50: −log10 of the molar value.

Target: Full length human CDC7 protein co-expressed with DBF4 (Homo sapiens (Human), UniProt O00311)
Assay: CDC7 kinase biochemical assay (ADP-Glo, PDKtide substrate)
Details: 0.1 nM CDC7/DBF4, 1 uM ATP, 10 uM PDKtide, 4 h
Procedure: CDC7 Kinase Biochemical Assay Protocol:
Full length human CDC7 protein co-expressed with DBF4 was purchased from SignalChem (China). CDC7 kinase activity was determined with PDKtide (SignalChem) as a substrate and by measuring ADP production using the ADP-Glo™ Kinase Assay kit (Promega) following the manufacturers instructions. The kinase reaction was performed using the following conditions: Buffer: 40 mM Tris pH 7.5, 20 mM MgCl2, 0.1 mg/ml BSA and 50 uM DTT. Final reaction mix contained 0.1 nM CDC7/DBF4, 1 uM ATP and 10 uM PDKtide. The kinase reaction time was 4 h. The ADP-Glo signal was measured using an EnVision plate reader (PerkinELmer).
Percent inhibition of CDC7 kinase activity was calculated based on the following formula:
[formula] • Ssample: the signal of compounds • SHigh Ctrl: the signal of high control (DMSO) • SLow Ctrl: the signal of low control (positive control CDC7 inhibitor)

Chain of Full length human CDC7 protein co-expressed with DBF4 (O00311 whole entry): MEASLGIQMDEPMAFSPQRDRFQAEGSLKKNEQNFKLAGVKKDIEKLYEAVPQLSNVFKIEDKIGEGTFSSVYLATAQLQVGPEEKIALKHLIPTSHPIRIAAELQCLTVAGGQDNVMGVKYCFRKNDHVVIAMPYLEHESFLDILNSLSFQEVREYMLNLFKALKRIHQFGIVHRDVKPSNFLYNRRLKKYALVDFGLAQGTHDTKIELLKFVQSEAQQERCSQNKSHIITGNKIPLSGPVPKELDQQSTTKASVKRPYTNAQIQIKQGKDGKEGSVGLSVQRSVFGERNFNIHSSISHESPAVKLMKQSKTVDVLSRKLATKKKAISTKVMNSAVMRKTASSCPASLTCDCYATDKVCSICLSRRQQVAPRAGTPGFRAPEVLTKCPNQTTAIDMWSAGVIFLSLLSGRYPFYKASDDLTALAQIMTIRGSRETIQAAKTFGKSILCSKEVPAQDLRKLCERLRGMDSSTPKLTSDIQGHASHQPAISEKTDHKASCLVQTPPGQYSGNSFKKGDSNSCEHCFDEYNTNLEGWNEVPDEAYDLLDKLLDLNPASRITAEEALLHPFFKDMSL
Chain of Full length human CDC7 protein co-expressed with DBF4 (Q9UBU7 whole entry partner): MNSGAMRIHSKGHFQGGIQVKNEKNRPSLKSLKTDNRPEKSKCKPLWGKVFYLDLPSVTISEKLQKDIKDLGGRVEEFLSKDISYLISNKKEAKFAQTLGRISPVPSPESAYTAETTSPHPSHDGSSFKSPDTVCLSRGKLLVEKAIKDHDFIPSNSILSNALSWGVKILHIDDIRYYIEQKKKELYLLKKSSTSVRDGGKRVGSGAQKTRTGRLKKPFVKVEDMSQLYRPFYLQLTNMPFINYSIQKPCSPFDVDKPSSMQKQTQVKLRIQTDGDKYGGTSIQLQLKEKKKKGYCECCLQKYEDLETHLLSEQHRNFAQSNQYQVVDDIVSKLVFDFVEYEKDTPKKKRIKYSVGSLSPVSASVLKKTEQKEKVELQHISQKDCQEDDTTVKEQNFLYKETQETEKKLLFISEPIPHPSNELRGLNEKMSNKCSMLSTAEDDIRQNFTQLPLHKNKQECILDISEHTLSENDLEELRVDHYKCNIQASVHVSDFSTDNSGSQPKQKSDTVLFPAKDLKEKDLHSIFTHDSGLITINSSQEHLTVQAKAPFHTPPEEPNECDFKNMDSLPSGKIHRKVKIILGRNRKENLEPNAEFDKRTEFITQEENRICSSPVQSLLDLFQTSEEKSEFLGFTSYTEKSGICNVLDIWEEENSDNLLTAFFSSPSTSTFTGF

Compound | pIC50
CC(c1[nH]c(=O)c2sc(-c3cn[nH]c3)c3c2c1CCCO3)n1nccn1 (racemic) [Example 48, 2-(1H-pyrazol-4-yl)-7-[1-(triazol-2-yl)ethyl]-12-oxa-3-thia-6-azatricyclo[6.4.1.0^4,13] trideca-1,4(13),7-trien-5-one] | > 9.00
C[C@@H](c1[nH]c(=O)c2sc(-c3cn[nH]c3)c3c2c1CCCO3)n1cc(C#N)cn1 (single isomer, unassigned) [Example 26] | > 9.00
C[C@H](c1[nH]c(=O)c2sc(-c3cn[nH]c3)c3c2c1CCCO3)n1cc(C#N)cn1 (single isomer, unassigned) [Example 27] | > 9.00
C[C@H](O)c1[nH]c(=O)c2sc(-c3cn[nH]c3)c3c2c1CCCO3 (single isomer, unassigned) [Example 32] | > 9.00
C[C@@H](O)c1[nH]c(=O)c2sc(-c3cn[nH]c3)c3c2c1CCCO3 (single isomer, unassigned) [Example 33] | > 9.00
COC[C@H](c1[nH]c(=O)c2sc(-c3cn[nH]c3)c3c2c1CCCO3)n1cccn1 (single isomer, unassigned) [Example 35] | > 9.00
COC[C@@H](c1[nH]c(=O)c2sc(-c3cn[nH]c3)c3c2c1CCCO3)n1cccn1 (single isomer, unassigned) [Example 36] | > 9.00
COC[C@H](c1[nH]c(=O)c2sc(-c3cn[nH]c3)c3c2c1CCCO3)N1CCC(F)(F)C1 (single isomer, unassigned) [Example 37] | 8.00 to 9.00
COC[C@@H](c1[nH]c(=O)c2sc(-c3cn[nH]c3)c3c2c1CCCO3)N1CCC(F)(F)C1 (single isomer, unassigned) [Example 38] | 8.00 to 9.00
COC[C@@H](OC)c1[nH]c(=O)c2sc(-c3cn[nH]c3)c3c2c1CCCO3 (single isomer, unassigned) [Example 39] | > 9.00
COC[C@H](OC)c1[nH]c(=O)c2sc(-c3cn[nH]c3)c3c2c1CCCO3 (single isomer, unassigned) [Example 40] | > 9.00
C[C@H](c1[nH]c(=O)c2sc(-c3cn[nH]c3)c3c2c1CCCO3)n1ccnn1 (single isomer, unassigned) [Example 49] | > 9.00
C[C@@H](c1[nH]c(=O)c2sc(-c3cn[nH]c3)c3c2c1CCCO3)n1ccnn1 (single isomer, unassigned) [Example 50] | > 9.00
C[C@@](O)(c1[nH]c(=O)c2sc(-c3cn[nH]c3)c3c2c1CCCO3)C1CC1 (single isomer, unassigned) [Example 59] | > 9.00
C[C@](O)(c1[nH]c(=O)c2sc(-c3cn[nH]c3)c3c2c1CCCO3)C1CC1 (single isomer, unassigned) [Example 60] | > 9.00
C[C@H]1Cc2c(C(C)(C)O)[nH]c(=O)c3sc(-c4cn[nH]c4)c(c23)O1 (single isomer, unassigned) [Example 61] | > 9.00
C[C@@H]1Cc2c(C(C)(C)O)[nH]c(=O)c3sc(-c4cn[nH]c4)c(c23)O1 (single isomer, unassigned) [Example 62] | > 9.00
C[C@H]1Cc2c(CN3CCC3)[nH]c(=O)c3sc(-c4cn[nH]c4)c(c23)O1 (single isomer, unassigned) [Example 63] | > 9.00
C[C@@H]1Cc2c(CN3CCC3)[nH]c(=O)c3sc(-c4cn[nH]c4)c(c23)O1 (single isomer, unassigned) [Example 64] | > 9.00
C[C@@H]1Cc2c(CN3CCC(F)(F)C3)[nH]c(=O)c3sc(-c4cn[nH]c4)c(c23)O1 (single isomer, unassigned) [Example 65] | > 9.00
C[C@H]1Cc2c(CN3CCC(F)(F)C3)[nH]c(=O)c3sc(-c4cn[nH]c4)c(c23)O1 (single isomer, unassigned) [Example 66] | > 9.00
CC[C@](C)(O)c1[nH]c(=O)c2sc(-c3ccncc3)c3c2c1CCCO3 (single isomer, unassigned) [Example 71] | > 9.00
CC[C@@](C)(O)c1[nH]c(=O)c2sc(-c3ccncc3)c3c2c1CCCO3 (single isomer, unassigned) [Example 72] | > 9.00
